From publication PMC5619856, “One enzyme, many reactions: structural basis for the various reactions catalyzed by naphthalene 1,2-dioxygenase” (IUCrJ, 2017)

Target: T1, naphthalene 1,2-dioxygenase (NDO) (Pseudomonas putida, UniProt P0A110)
T1 construct: gene ndoB; wild-type terminal oxygenase component, plasmid pDTG121 in E. coli DE3 Star, no tag mentioned; alpha3beta3 hexamer with Rieske [2Fe-2S] and mononuclear iron; with Naphthalene 1,2-dioxygenase system, small oxygenase component
T1 sequence (P0A110 1-449): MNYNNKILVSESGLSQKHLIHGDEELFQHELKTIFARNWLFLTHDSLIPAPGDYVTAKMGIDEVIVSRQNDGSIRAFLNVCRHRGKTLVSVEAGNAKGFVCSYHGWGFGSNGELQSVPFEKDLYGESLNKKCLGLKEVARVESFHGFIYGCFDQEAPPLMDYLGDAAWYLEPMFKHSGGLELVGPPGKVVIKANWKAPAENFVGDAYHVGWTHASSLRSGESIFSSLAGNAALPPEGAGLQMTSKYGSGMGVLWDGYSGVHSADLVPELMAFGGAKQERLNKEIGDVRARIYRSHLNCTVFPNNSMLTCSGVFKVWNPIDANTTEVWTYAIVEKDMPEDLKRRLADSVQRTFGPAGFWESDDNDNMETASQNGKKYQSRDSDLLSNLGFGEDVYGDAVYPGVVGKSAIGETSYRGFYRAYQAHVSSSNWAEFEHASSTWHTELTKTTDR
T1 sequence (P0A112 1-194 partner): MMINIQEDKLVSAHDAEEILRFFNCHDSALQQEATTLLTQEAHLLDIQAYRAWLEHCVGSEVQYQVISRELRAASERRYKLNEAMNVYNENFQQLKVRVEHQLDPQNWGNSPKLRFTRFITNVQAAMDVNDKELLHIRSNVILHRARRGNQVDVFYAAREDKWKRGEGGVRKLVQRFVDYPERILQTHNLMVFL
Test: X-ray crystal structure (soaked crystal)
Format: binding
Conditions: active site, multiple orientations; crystals pH 5.0-5.8; soaked at least two weeks

## CCSc1ccccc1 [ethylphenylsulfide]
  X-ray crystal structure (soaked crystal): structures of phenetole, thioanisole and ethylphenylsulfide in complex with NDO were solved

## CCOc1ccccc1 [phenetole]
  X-ray crystal structure (soaked crystal): structures of phenetole, thioanisole and ethylphenylsulfide in complex with NDO were solved

## CSc1ccccc1 [thioanisole]
  X-ray crystal structure (soaked crystal): structures of phenetole, thioanisole and ethylphenylsulfide in complex with NDO were solved
